# Experimental data: paper PMC10726357, “New Genetically Engineered Derivatives of Antibacterial Darobactins Underpin Their Potential for Antibiotic Development” (Journal of Medicinal Chemistry, 2023)
# Where no end group is shown, it is not given here.
# How the values were obtained:
# Assay in all cases: Antibacterial activity screening of darobactin-containing crude extracts
# Set-up in all cases: key: two-fold serial dilution from 1:15 (A) (concentration factor: 6.67×); low activity A B C D E F G H high activity; low activity A B C D E F G H high activity; low activity A B C D E F G H high activity; low activity A B C D E F G H high activity; low activity A B C D E F G H high activity; low activity A B C D E F G H high activity; to 1:3,840 (H) (concentration factor: 0.05×)
# Settings in all cases: derivative-containing crude extract, two-fold serial dilution
# [1] = test system: Acinetobacter baumannii DSM-30008; type: cell-based
# Description: (§1) The extracts of production clones for all derivatives were prepared and tested for their antibacterial activity against E. coli ATCC 25922, P. aeruginosa PA01, K. pneumoniae DSM-30104, and A. baumannii DSM-30008.
# (§2) The antibacterial activity of novel darobactins was determined by the evaluation of the minimum inhibitory concentration (MIC) as previously described for crude extracts and for pure darobactin analogues.[12]
# [2] = test system: Klebsiella pneumoniae DSM-30104; type: cell-based
# Description: as §1, §2
# [3] = test system: Escherichia coli ATCC 25922; type: cell-based
# Description: as §1, §2
# P. aeruginosa PA01 = type: cell-based, Pseudomonas aeruginosa
# Description: as §1, §2
Substance,"antimicrobial activity of crude extract: highest dilution factor with full growth inhibition, A. baumannii DSM-30008 [1]","antimicrobial activity of crude extract: highest dilution factor with full growth inhibition, K. pneumoniae DSM-30104 [2]","antimicrobial activity of crude extract: highest dilution factor with full growth inhibition, E. coli ATCC25922 [3]","antimicrobial activity of crude extract: highest dilution factor with full growth inhibition, P. aeruginosa PA01 (P. aeruginosa PA01)"
"D62: novel darobactin derivative, core peptide WRWTKRW (not fully specified (bridges); also: darobactin bicyclic crosslinks)",A,B,–,–
"D73: novel darobactin derivative, core peptide WDWSKRW (also: darobactin bicyclic crosslinks)",C,A,A,B
"D67: novel darobactin derivative, core peptide WYWTKRW (not fully specified (bridges); also: darobactin bicyclic crosslinks)",E,C,C,D
"D71: novel darobactin derivative, core peptide WEWSKRW (also: darobactin bicyclic crosslinks)",E,C,C,B-C
"D65: novel darobactin derivative, core peptide WSWTKKW (not fully specified (bridges); also: darobactin bicyclic crosslinks)",D,A,A,B
"D72: novel darobactin derivative, core peptide WKWSKRW (also: darobactin bicyclic crosslinks)",C,B,C,B
"D59: novel darobactin derivative, core peptide WKWTKRW (not fully specified (bridges); also: darobactin bicyclic crosslinks)",A,A,A,A
"D68: novel darobactin derivative, core peptide WLWTKRW (not fully specified (bridges); also: darobactin bicyclic crosslinks)",D,B,B,B
"D63: novel darobactin derivative, core peptide WVWTKRW (not fully specified (bridges); also: darobactin bicyclic crosslinks)",C,B,–,A
